Consider 2 compounds from patent publication EP0398230B1, “Antiviral, highly water soluble, stable, crystalline salts of 2',3'-dideoxyinoside monohydrate, 2',3'-dideoxy-2',3'-didehydrothymidine monohydrate and 2',3'-dideoxy-2'-fluoroinosine hemihydrate” (priority 1989, dated 1990).

The conditions of data set [1]: 5 weeks at 70°C.
A short description of data set [2]: physchem. The conditions noted are these: water, pH 10, water, thermodynamic from solid.

Where two headings read alike, the source gives them in different places.

As to `OC[C@@H]1CC[C@H](n2cnc3c(O)ncnc32)O1.[Na]` [Na-DDI·H2O, sodium-2',3'-dideoxyinosine], the “Aqueous Solution Stability, loss” value came to 5% (1 week at 50°C) and 10% (1 week at 70°C). In data set [1], the “Solid State Stability” value is listed as “No loss”.

The term solubility denotes the dissolved amount per volume that the medium holds. As to `O=c1[nH]cnc2c1ncn2[C@@H]1O[C@H](CO)C[C@@H]1F` [Sodium F-ddI Hemihydrate, sodium-2',3'-dideoxy-2'-fluoroinosine], the solubility in data set [2] is approximately 400 mg/mL.
